In patent publication US12528816B2, “Substituted imidazo [1,2-b] pyridazines and [1, 2, 4] triazolo [ 4,3-b] pyridazines as camkii inhibitors” (Cardurion Pharmaceuticals, INC., priority 2020, dated 2026):

What follows are molecules tested against T1, human CaMKIIδ (Homo sapiens, UniProt Q13557) (assay: Evaluation of in vitro CaMKII inhibitory activity (binding assay, TR-FRET)). Conditions: in vitro CaMKII inhibitory activity (binding assay), human CaMKIIδ; read-out: Act.
T1 construct: Full-length, glutathione-S-transferase(GST)-tagged, human CaMKIIδ was purchased from Carna Biosciences; purchased Carna Biosciences (CaMKIIδ); Wako Pure Chemical Industries (calmodulin) 02-111
How it was run: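 Inhibitors, in eight concentrations of 4-fold dilution, were incubated 1 h at room temperature with a protein–fluorescent probe premix preformed 30 min on ice, containing calmodulin and terbium anti-GST antibody. Displacement read by TR-FRET in duplicate; IC50 by logistic fitting.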

Row | Compound | IC50 [nM]
1 | C[C@@H](Cn1cnnn1)Oc1cccc(-c2ccc3ncc(-c4cc(=O)n(C)cc4C#N)n3n2)c1 [compound 348] | < 10
2 | C[C@@H](Cn1cnnn1)Oc1cccc(-c2ccc3ncc(-c4nc(C(F)(F)F)ccc4C#N)n3n2)c1 [compound 349] | 10 to 100
3 | C[C@@H](Cn1cnnn1)Oc1cccc(-c2ccc3ncc(-c4nc(N(C)C)ccc4C#N)n3n2)c1 [compound 350] | 10 to 100
4 | COc1cc(-c2cnc3ccc(-c4cccc(O[C@@H](C)Cn5cnnn5)c4)nn23)c(F)cn1 [compound 351] | < 10
5 | C[C@@H](Cn1cnnn1)Oc1cccc(-c2ccc3ncc(-c4nccc(OCC5COC5)c4C#N)n3n2)c1 [compound 352] | < 10
6 | COc1ccnc(-n2cnc3ccc(-c4cccc(O[C@@H](C)Cn5cnnn5)c4)nc32)c1C#N [compound 353] | < 10
7 | COc1ccnc(-n2cnc3ccc(-c4ccc(F)c(O[C@@H](C)Cn5cnnn5)c4)nc32)c1C#N [compound 355] | < 10
8 | C[C@@H](Cn1cnnn1)Oc1cccc(-c2ccc3ncc(-c4nccc(N(C)C)c4C#N)n3n2)c1 [compound 356] | < 10
9 | C[C@@H](Cn1cnnn1)Oc1cc(F)cc(-c2ccc3ncc(-c4cccn(C)c4=O)n3n2)c1 [compound 357] | < 10
10 | C[C@@H](Cn1cnnn1)Oc1cccc(-c2ccc3ncc(-c4cc(F)cnc4OCC#N)n3n2)c1 [compound 359] | < 10
11 | C[C@@H](Cn1cnnn1)Oc1cccc(-c2ccc3ncc(-c4cc(F)cn(CC#N)c4=O)n3n2)c1 [compound 360] | < 10
12 | CNc1ccc(C#N)c(-c2cnc3ccc(-c4cccc(O[C@@H](C)Cn5cnnn5)c4)nn23)n1 [compound 361] | < 10
13 | COc1ncc(C#N)c(-c2cnc3ccc(-c4cccc(O[C@@H](C)Cn5cnnn5)c4)nn23)n1 [compound 362] | < 10
14 | C[C@@H](Cn1cnnn1)Oc1cccc(-c2ccc3ncc(-c4nccc(N5CCCC5)c4C#N)n3n2)c1 [compound 363] | 10 to 100
15 | C[C@@H](Cn1cnnn1)Oc1cccc(-c2ccc3ncc(-c4[nH]c(=O)ccc4C#N)n3n2)c1 [compound 364] | < 10
16 | CCOc1ncnc(-c2cnc3ccc(-c4cccc(O[C@@H](C)Cn5cnnn5)c4)nn23)c1C#N [compound 365] | < 10
17 | CCOc1ccnc(-c2cnc3ccc(-c4cccc(O[C@@H](C)Cn5cnnn5)c4)nn23)c1C#N [compound 366] | < 10
18 | C[C@@H](Cn1cnnn1)Oc1cccc(-c2ccc3ncc(-c4nccc(NCC(F)F)c4C#N)n3n2)c1 [compound 367] | 10 to 100
19 | C[C@@H](Cn1cnnn1)Oc1cc(-c2ccc3ncn(-c4ncccc4C#N)c3n2)ccc1Cl [compound 368] | 10 to 100
20 | C[C@@H](Cn1cnnn1)Oc1cccc(-c2ccc3ncc(-c4nccc(NCC(F)(F)F)c4C#N)n3n2)c1 [compound 369] | 10 to 100
21 | C[C@@H](Cn1cnnn1)Oc1cccc(-c2ccc3ncc(-c4nccc(N5CCC5)c4C#N)n3n2)c1 [compound 370] | 10 to 100
22 | CCc1ccc(C#N)c(-c2cnc3ccc(-c4cccc(O[C@@H](C)Cn5cnnn5)c4)nn23)n1 [compound 371] | < 10
23 | C[C@@H](Cn1cnnn1)Oc1cccc(-c2ccc3ncc(-c4ncnc(N(C)C)c4C#N)n3n2)c1 [compound 372] | 10 to 100

Row | Compound | IC50 [nM]
24 | C[C@@H](Cn1cnnn1)Oc1cccc(-c2ccc3nnc(-c4ccccc4C#N)n3n2)c1 [compound 373] | > 100
25 | CCOc1ccnc(-n2cnc3ccc(-c4cccc(O[C@@H](C)Cn5cnnn5)c4)nc32)c1C#N [compound 374] | < 10
26 | CCOc1ccnc(-n2cnc3ccc(-c4ccnc(O[C@@H](C)Cn5cnnn5)c4)nc32)c1C#N [compound 375] | 10 to 100
27 | C[C@@H](Cn1cnnn1)Oc1cccc(-c2ccc3ncc(-c4nccc(N(C)CC(F)F)c4C#N)n3n2)c1 [compound 376] | 10 to 100
28 | COc1ccnc(-c2c(F)nn3ccc(-c4cccc(O[C@@H](C)Cn5cnnn5)c4)nc23)c1C#N [compound 377] | 10 to 100
29 | Cc1ccnc(-c2cnc3ccc(-c4cccc(O[C@@H](C)Cn5cnnn5)c4)nn23)c1C#N [compound 378] | < 10
30 | CCc1ccnc(-c2cnc3ccc(-c4cccc(O[C@@H](C)Cn5cnnn5)c4)nn23)c1C#N [compound 380] | < 10
31 | C[C@@H](Cn1cnnn1)Oc1cccc(-c2ccc3ncc(-c4nc[nH]c(=O)c4C#N)n3n2)c1 [compound 381] | < 10
32 | C[C@@H](Cn1cnnn1)Oc1cccc(-c2ccc3ncn(-c4cc(C(F)F)ccc4C#N)c3n2)n1 [compound 382] | > 100
33 | C[C@@H](Cn1cnnn1)Oc1cncc(-c2ccc3ncn(-c4cc(C(F)F)ccc4C#N)c3n2)n1 [compound 384] | > 100
34 | C[C@@H](Cn1cnnn1)Oc1cccc(-c2ccc3ncn(-c4cc(OC(F)F)ccc4C#N)c3n2)n1 [compound 385] | > 100
35 | C[C@@H](Cn1cnnn1)Oc1cccc(-c2ccc3ncc(-c4nc(Cl)ccc4C#N)n3n2)c1 [compound 386] | < 10
36 | C[C@@H](Cn1cnnn1)Oc1cccc(-c2ccc3nnc(-c4cc(F)ccc4C#N)n3n2)c1 [compound 387] | > 100
37 | C[C@@H](Cn1cnnn1)Oc1cccc(-c2ccc3ncc(-c4nc(C(F)F)ccc4C#N)n3n2)c1 [compound 388] | < 10
38 | CC(=O)c1ccc(C#N)c(-c2cnc3ccc(-c4cccc(O[C@@H](C)Cn5cnnn5)c4)nn23)n1 [compound 389] | 10 to 100
39 | CC(O)c1ccc(C#N)c(-c2cnc3ccc(-c4cccc(O[C@@H](C)Cn5cnnn5)c4)nn23)n1 (stereo partly shown) [compound 390] | < 10
40 | C[C@@H](Cn1cnnn1)Oc1cccc(-c2ccc3nnc(-c4ncccc4C#N)n3n2)c1 [compound 391] | > 100
41 | C[C@@H](Cn1cnnn1)Oc1cccc(-c2ccc3ncc(-c4ncnc(N)c4C#N)n3n2)c1 [compound 394] | 10 to 100
42 | C[C@@H](Cn1cnnn1)Oc1cccc(-c2ccc3ncn(-c4cccc(C(F)F)c4C#N)c3n2)c1 [compound 395] | < 10
43 | COc1cc(F)cc(-n2cnc3ccc(-c4cncc(O[C@@H](C)Cn5cnnn5)n4)nc32)c1C#N [compound 396] | < 10
44 | C[C@@H](Cn1cnnn1)Oc1cccc(-c2ccc3ncn(-c4cccc(C(F)F)c4C#N)c3n2)n1 [compound 397] | > 100
45 | C[C@@H](Cn1cnnn1)Oc1cccc(-c2ccc3ncn(-c4cccc(OC(F)F)c4C#N)c3n2)n1 [compound 398] | 10 to 100
46 | COc1nccc(-c2cnc3ccc(-c4cccc(O[C@@H](C)Cn5cnnn5)c4)nn23)c1C#N [compound 400] | < 10

Row | Compound | IC50 [nM]
47 | C[C@@H](Cn1cnnn1)Oc1cccc(-c2ccc3ncc(-c4nccc(C(F)F)c4C#N)n3n2)c1 [compound 401] | < 10
48 | COc1ncnc(-c2cnc3ccc(-c4ccc(F)c(O[C@@H](C)Cn5cnnn5)c4)nn23)c1C#N [compound 402] | < 10
49 | COc1nccc(-c2cnc3ccc(-c4cccc(O[C@@H](C)Cn5cnnn5)n4)nn23)c1C#N [compound 403] | < 10
50 | COc1cccc(-c2cnc3ccc(-c4cccc(O[C@@H](C)Cn5cnnn5)n4)nn23)c1C#N [compound 404, 2-methoxy-6-[6-(6-{[(2S)-1-(1H-tetrazol-1-yl)propan-2-yl]oxy}pyridin-2-yl)imidazo[1,2-b]pyridazin-3-yl]benzonitrile] | < 10
51 | C[C@@H](Cn1cnnn1)Oc1cccc(-c2ccc3ncn(-c4cc(F)cc(OC(F)F)c4C#N)c3n2)n1 [compound 405] | < 10
52 | C[C@@H](Cn1cnnn1)Oc1cncc(-c2ccc3ncn(-c4cc(F)cc(OC(F)F)c4C#N)c3n2)n1 [compound 406] | 10 to 100
53 | C[C@@H](Cn1cnnn1)Oc1cccc(-c2ccc3ncn(-c4cc(F)cc(C(F)F)c4C#N)c3n2)n1 [compound 407] | 10 to 100
54 | COc1cc(F)c(C#N)c(-c2cnc3ccc(-c4cccc(O[C@@H](C)Cn5cnnn5)n4)nn23)c1 [compound 408] | < 10
55 | COc1cc(F)cc(-n2cnc3ccc(-c4cc(O[C@@H](C)Cn5cnnn5)ccn4)nc32)c1C#N [compound 411] | < 10
56 | COc1ccnc(-c2cnc3ccc(-c4cccc(O[C@@H](C)Cn5cnnn5)n4)nn23)c1C#N [compound 414] | 10 to 100
57 | C[C@@H](Cn1cnnn1)Oc1cccc(-c2ccc3ncc(-c4cnccc4C#N)n3n2)n1 [compound 415] | < 10
58 | C[C@@H](Cn1cnnn1)Oc1cccc(-c2ccc3ncc(-c4ccc(F)cc4C#N)n3n2)n1 [compound 418] | 10 to 100
59 | C[C@@H](Cn1cnnn1)Oc1cccc(-c2ccc3ncc(-c4cccc(F)c4C#N)n3n2)n1 [compound 419] | < 10
60 | COc1ccc(C#N)c(-c2cnc3ccc(-c4cccc(O[C@@H](C)Cn5cnnn5)n4)nn23)c1 [compound 420] | < 10
61 | C[C@@H](Cn1cnnn1)Oc1cccc(-c2ccc3ncc(-c4cc(F)cc(F)c4C#N)n3n2)n1 [compound 421] | < 10
62 | C[C@@H](Cn1cnnn1)Oc1cccc(-c2ccc3ncc(-c4c(C#N)ccc(F)c4F)n3n2)n1 [compound 422] | < 10
63 | C[C@@H](Cn1cnnn1)Oc1cccc(-c2ccc3ncc(-c4c(F)ccc(F)c4C#N)n3n2)n1 [compound 423] | < 10
64 | COc1cc(F)c(C#N)c(-n2cnc3ccc(-c4cccc(O[C@@H](C)Cn5cnnn5)n4)nc32)c1 [compound 424] | < 10
65 | C[C@@H](Cn1cnnn1)Oc1cccc(-c2ccc3ncc(-c4ccccc4C#N)n3n2)n1 [compound 425, 2-[6-(6-{[(2S)-1-(1H-tetrazol-1-yl)propan-2-yl]oxy}pyridin-2-yl)imidazo[1,2-b]pyridazin-3-yl]benzonitrile] | < 10
66 | COc1cccc(-c2cnc3ccc(-c4cncc(O[C@@H](C)Cn5cnnn5)n4)nn23)c1C#N [compound 428, 2-methoxy-6-[6-(6-{[(2S)-1-(1H-tetrazol-1-yl)propan-2-yl]oxy}pyrazin-2-yl)imidazo[1,2-b]pyridazin-3-yl]benzonitrile] | < 10
67 | COc1ccnc(-c2cnc3ccc(-c4cncc(O[C@@H](C)Cn5cnnn5)n4)nn23)c1C#N [compound 429] | > 100
